Measured values: patent US20240261351A1, “COMPOSITIONS AND METHODS FOR THE TREATMENT OF BONE AND JOINT DISEASES” (priority 2021, published 2024)
Where “and” joins values, the source holds several entries; their conditions need not be identical. Equal values may be shown once.

Tests used:
[1] = Strontium blood levels by Inductively Coupled Plasma Mass Spectrometry; details: for maximum strontium blood level: 10-15 g strontium salt daily split morning and evening plus 50 g Aquamin daily as top dressing for 14 days, blood drawn in the morning before feeding, individual horses
Description: Approximately 4 months into the trial, strontium blood levels were measured in a small group of horses. […] (Li et al., 2009). To measure strontium blood levels, Inductively Coupled Plasma Mass Spectrometry was used (Eurofins Lab, (Wisconsin USA)).
A group of six horses were utilized and were administered the subject compositions for 14 days total. The compositions were added to morning and evening feed as a top dressing. All subjects received 50 g of “Aquamin” daily given as 25 g in morning and 25 g in evening. Three horses received Strontium ranelate at 10 g, 12 g, and 15 g daily split between the morning and evening. Three horses received Strontium citrate at 10 g, 12 g, and 14 g daily split morning and evening. Blood samples were taken a day 0, 1, 5, 8, 12, and 15 days. Bloods were drawn first thing in the morning before any supplements were fed.

[2] = human, receiving 2 grams per day (AusProtos, 2013); cited from earlier work

Row | Compound | maximum strontium blood level [1] | strontium blood levels [2] [µmol/L] | strontium blood levels compared with strontium ranelate ([1]; six-horse 14 day study with 50 g Aquamin daily)
1 | N#Cc1c(N(CC(=O)[O-])CC(=O)[O-])sc(C(=O)[O-])c1CC(=O)[O-].[Sr+2].[Sr+2] [strontium ranelate, reference compound] | about 7.5 μmole/L | 140 to 150 | 
2 | strontium citrate | 9.3 µmol/L and 9.5 µmol/L |  | comparable
